{"source": "patent US20070048247A1", "about": "“Deodorizing tablets” (Kimberly-Clark Worldwide, Inc., priority 2005, published 2007)", "key": {"[1]": {"test": "Example 3 urine odor panel ranking", "design": "species or system Human", "method": "(§1) The effectiveness of various quinone compounds in reducing urine odor was compared. […] Human female urine was initially collected and pooled by a nurse on staff at Kimberly-Clark Corporation. The pooled urine was added to mason jars in 50-milliliter aliquots using an automated pipette aid. […] The mason jars were placed in an incubator overnight at 37° C.\n(§2) In addition to ranking the jars from least to most malodorous (on a scale from 1 to 7, with 7 being the most malodors), panelists were also asked to judge whether there were secondary (non-urine) odors present and, if so, the extent that the secondary odors were unpleasant (on a scale from 1 to 5, with 5 being extremely unpleasant).\nIn this assessment, panelists were given instructions to rank the least malodorous jar as “1” and the most malodorous jar as “10,” remaining free to rank the other jars between 2-9."}, "[2]": {"test": "Example 3 secondary (non-urine) odor ranking", "design": "species or system Human", "method": "as §1, §2"}, "[3]": {"test": "Example 6 urine odor panel ranking", "design": "species or system Human", "details": "as Example 5, 1 least, 8 most urine malodor", "from_the_text": "The quinone compounds chosen for this example were Alizarin Blue Black B, Remazol Brilliant Blue R and Acid Green 25. The results are set forth below in Tables 19 and 20."}, "[4]": {"test": "Solubility of powder in urine"}, "[5]": {"test": "Example 7 urine odor panel ranking (16 millimolar)", "design": "species or system Human", "details": "Example 7 Group E; 16 millimolar in urine; 1 least, 10 most urine malodor", "method": "The effectiveness of various quinone compounds in reducing urine odor was compared. […] Human female urine was initially collected and pooled at Kimberly-Clark Corporation. The pooled urine was added to mason jars in 50-milliliter aliquots using an automated pipette aid. Powders of the aforementioned quinone compounds (commercially available from Sigma-Aldrich Chemical Co., Inc. of St. Louis, Missouri and Noveon Hilton Davis, Inc. of Cincinnati, Ohio) were weighed and placed into the mason jars containing 50 milliliters of urine so that the final concentration of the powder was 16 millimolar (equivalent to 1 wt. %). The mason jars were placed in an incubator overnight at 37° C. The experimental setup is set forth in more detail below in Table 21.\nJars were wrapped in foil and placed in an incubator at 37° C. overnight. The jars were divided into four groups (C-F), each sharing the same control jar of urine alone (no powder). Assessments were conducted the following day by asking panelists to rate each jar from 1 (least urine malodor) to 10 (most urine malodor)."}, "[6]": {"test": "Example 5 urine odor panel ranking", "design": "species or system Human", "details": "Example 5 Group B", "method": "Assessments were conducted the following day by asking panelists to rate each jar from 1 (least urine malodor) to 8 (most urine malodor). The results are set forth below in Tables 15-18."}, "[7]": {"details": "Example 3 first grouping, 8 millimolar in urine, scale 1 to 7, 7 most malodorous"}, "[8]": {"details": "Example 3 second grouping, 8 millimolar in urine, 1 least malodorous"}, "[9]": {"details": "8 mM in urine, 1 least, 8 most urine malodor"}}}
{"smiles": "O=C1C=C(S(=O)(=O)[O-])c2ccccc2C1=O.[K+]", "note": "[1,2 Naphthaquinone]", "values": [{"measurement": "urine odor reduction (in words)", "setting": "[1]; Example 3 first grouping", "result": "effectively reduced urine odor"}, {"measurement": "Average Urine Odor Ranking, Avg. Score", "setting": "[1]; [7]", "result": 3.8}, {"measurement": "Urine Odor Ranking 2 (number of panelists)", "setting": "[1]; [7]", "result": 1}, {"measurement": "Urine Odor Ranking 3 (number of panelists)", "setting": "[1]; [7]", "result": 2}, {"measurement": "Urine Odor Ranking 4 (number of panelists)", "setting": "[1]; [7]", "result": 1}, {"measurement": "Urine Odor Ranking 7 (number of panelists)", "setting": "[1]; [7]", "result": 1}, {"measurement": "secondary odor (in words)", "setting": "[2]; Example 3 first grouping", "result": "unpleasant secondary smell was found to be present"}]}
{"smiles": "O=C1C=C(S(=O)(=O)[O-])C(=O)c2ccccc21.[K+]", "note": "[1,4 Naphthaquinone, 1,4 naphthaquinone-2-sulfonic acid potassium salt]", "values": [{"measurement": "Average Urine Odor Ranking, Avg. Score", "setting": "[1]; [8]", "result": 1.8}, {"measurement": "Urine Odor Ranking 1 (number of panelists)", "setting": "[1]; [8]", "result": 2}, {"measurement": "Urine Odor Ranking 2 (number of panelists)", "setting": "[1]; [8]", "result": 2}, {"measurement": "Urine Odor Ranking 3 (number of panelists)", "setting": "[1]; [8]", "result": 1}, {"measurement": "secondary odor (in words)", "setting": "[2]; Example 3 second grouping", "result": "unpleasant secondary odor"}]}
{"smiles": "Nc1cc(S(=O)(=O)[O-])c(O)c2c1C(=O)c1c(O)c(S(=O)(=O)[O-])cc(N)c1C2=O.[Na+].[Na+]", "note": "[Acid Blue 45]", "values": [{"measurement": "Average Urine Odor Ranking, Avg. Score", "setting": "[1]; [8]", "result": 3.4}, {"measurement": "Urine Odor Ranking 2 (number of panelists)", "setting": "[1]; [8]", "result": 1}, {"measurement": "Urine Odor Ranking 3 (number of panelists)", "setting": "[1]; [8]", "result": 2}, {"measurement": "Urine Odor Ranking 4 (number of panelists)", "setting": "[1]; [8]", "result": 1}, {"measurement": "Urine Odor Ranking 5 (number of panelists)", "setting": "[1]; [8]", "result": 1}, {"measurement": "Average Rankings, Avg. Score", "setting": "[3]", "result": 5.5}, {"measurement": "Urine Odor Ranking 2 (number of panelists)", "setting": "[3]", "result": 1}, {"measurement": "Urine Odor Ranking 6 (number of panelists)", "setting": "[3]", "result": 1}, {"measurement": "Urine Odor Ranking 7 (number of panelists)", "setting": "[3]", "result": 2}, {"measurement": "Soluble?", "setting": "[4]; Example 5, 8 mM in 50 milliliters of urine", "result": "Yes"}, {"measurement": "Soluble?", "setting": "[4]; Example 7, 16 mM in 50 milliliters of urine", "result": "Mostly"}, {"measurement": "Average Rankings (Group E), Avg. Score", "setting": "[5]", "result": 6.4}, {"measurement": "Urine Odor Ranking 3 (number of panelists)", "setting": "[5]", "result": 2}, {"measurement": "Urine Odor Ranking 8 (number of panelists)", "setting": "[5]", "result": 2}, {"measurement": "Urine Odor Ranking 10 (number of panelists)", "setting": "[5]", "result": 1}, {"measurement": "odor reduction performance (in words)", "setting": "[6]", "result": "performed well"}, {"measurement": "Average Rankings (Group B), Avg. Score", "setting": "[6]; [9]", "result": 3.75}, {"measurement": "Urine Odor Ranking 1 (number of panelists)", "setting": "[6]; [9]", "result": 2}, {"measurement": "Urine Odor Ranking 6 (number of panelists)", "setting": "[6]; [9]", "result": 1}, {"measurement": "Urine Odor Ranking 7 (number of panelists)", "setting": "[6]; [9]", "result": 1}]}
